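Test compounds were applied to cells in 96-well plates for 48 hours at 5 doses. Abbreviation: GI50, concentration required for 50% inhibition of growth. TGI: concentration producing complete growth inhibition.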
Legend:
Test in all cases: NCI-60 cell line screen, 48 h
[1] = test system: HL-60(TB) leukemia
[2] = test system: A549 NSCLC
[3] = test system: MCF7 breast
[4] = test system: K-562 leukemia
[5] = test system: SF-295 CNS
[6] = test system: UACC-62 melanoma
[7] = test system: TK-10 renal
[8] = test system: RXF 393 renal

## Nc1ccc2ccc(NS(=O)(=O)N3CCCCC3)cc2c1
[1]
  GI50: 0.327 µM
  TGI: > 100 µM
[2]
  GI50: 1 µM
  TGI: > 46 µM
[3]
  GI50: 0.295 µM
  TGI: > 100 µM
[4]
  GI50: 0.354 µM
  TGI: > 100 µM
[5]
  GI50: 0.228 µM
  TGI: 2.88 µM
[6]
  GI50: 0.301 µM
  TGI: > 100 µM
[7]
  GI50: 3.15 µM
  TGI: > 100 µM

## CCN(CC)CCOc1ccc2c(c1)C(=O)c1cc(OCCN(CC)CC)ccc1-2
[1]
  GI50: 3.04 µM
  TGI: 17.5 µM
[2]
  GI50: 6.4 µM
  TGI: 32.9 µM
[3]
  GI50: 3.44 µM
  TGI: 14.8 µM
[4]
  GI50: 3.1 µM
  TGI: 11.2 µM
[5]
  GI50: 17.2 µM
  TGI: 49.1 µM
[6]
  GI50: 12.4 µM
  TGI: 26.7 µM
[8]
  GI50: 10.2 µM
  TGI: 24 µM
[7]
  GI50: 19.2 µM
  TGI: 90.9 µM

## N#C/C(N)=C(\C#N)N=Cc1csc2ccccc12
[1]
  GI50: > 100 µM
  TGI: > 100 µM
[2]
  GI50: 45.4 µM
  TGI: > 100 µM
[3]
  GI50: 3.41 µM
  TGI: > 100 µM
[4]
  GI50: 95.5 µM
  TGI: > 100 µM
[5]
  GI50: 51.5 µM
  TGI: > 100 µM
[6]
  GI50: 28.2 µM
  TGI: > 100 µM
[7]
  GI50: 17.6 µM
  TGI: 45 µM

## CCOC(=O)N[C@H]1CCc2c(Br)c(OC)c(OC)c(OC)c2-c2ccc(SC)c(=O)cc21
[1]
  GI50: < 0.01 µM
  TGI: 0.0131 µM
[2]
  GI50: < 0.0184 µM
  TGI: > 43 µM
[3]
  GI50: < 0.01 µM
  TGI: 12.7 µM
[4]
  GI50: < 0.01 µM
  TGI: > 38.2 µM
[5]
  GI50: < 0.01 µM
  TGI: 3.79 µM
[6]
  GI50: < 0.01 µM
  TGI: 14.2 µM
[8]
  GI50: < 0.01 µM
  TGI: 13.8 µM
[7]
  GI50: 3.8 µM
  TGI: > 60.4 µM

## CC(=O)OC1CCC2(C)C(=CCC3C4CCC5(OC6CC(C)CN(C(C)=O)C6C5C)C(C)=C4C(=O)C32)C1 (stereo unspecified)
[1]
  TGI: > 100 µM
[2]
  TGI: 47.7 µM
[3]
  TGI: 26.4 µM
[4]
  TGI: 52.7 µM
[5]
  TGI: 42 µM
[6]
  TGI: 18.5 µM
[8]
  TGI: 32.2 µM
[7]
  TGI: 56.7 µM

## O=C(O)c1cc(Cc2ccc(O)c(C(=O)O)c2)ccc1O (tested in a mixture with another compound)
[2]
  GI50: 9.82 µM
  TGI: 28 µM
[3]
  GI50: 2.53 µM
  TGI: 12.5 µM
[4]
  GI50: 2.38 µM
  TGI: > 100 µM
[5]
  GI50: 0.592 µM
  TGI: 2.9 µM
[6]
  GI50: 4.73 µM
  TGI: 19.9 µM
[8]
  GI50: 0.25 µM
  TGI: 1.37 µM
[7]
  GI50: 6.17 µM
  TGI: 20.7 µM

## c1ccc2cc(Cn3c[n+](Cc4ccc5ccccc5c4)c4ccccc43)ccc2c1
[2]
  GI50: 1.87 µM
  TGI: 3.88 µM

## COc1ccc2c(c1)cn1c3ccc(O)cc3[nH]c(=O)c21
[1]
  GI50: 0.216 µM
  TGI: 1.2 µM
[2]
  GI50: 0.301 µM
  TGI: 1.82 µM
[3]
  GI50: 0.366 µM
  TGI: 1.95 µM
[5]
  GI50: 0.248 µM
  TGI: 3.52 µM
[6]
  GI50: 0.151 µM
  TGI: 6.02 µM
[8]
  GI50: 0.0592 µM
  TGI: 0.627 µM
[7]
  GI50: 0.881 µM
  TGI: 2.49 µM

## Cc1cccc2c1O/C(=C\c1ccc([N+](=O)[O-])o1)C2=O
[1]
  GI50: 1.58 µM
  TGI: 4.35 µM
[2]
  GI50: 2.56 µM
  TGI: 7.81 µM
[4]
  GI50: 0.296 µM
  TGI: 1.12 µM
[5]
  GI50: 2 µM
  TGI: 6.46 µM
[6]
  GI50: 1.26 µM
  TGI: 2.72 µM
[8]
  GI50: 1.24 µM
  TGI: 2.83 µM
[7]
  GI50: 2.3 µM
  TGI: 5.61 µM

## CC(=O)[C-](C(C)=O)c1ccccc1.CC(=O)[C-](C(C)=O)c1ccccc1.CC[O-].CC[O-].[Ti+4]
[1]
  GI50: > 100 µM
  TGI: > 100 µM
[2]
  GI50: > 100 µM
  TGI: > 100 µM
[4]
  GI50: > 100 µM
  TGI: > 100 µM
[5]
  GI50: > 100 µM
  TGI: > 100 µM
[6]
  GI50: > 100 µM
  TGI: > 100 µM
[7]
  GI50: > 100 µM
  TGI: > 100 µM

## CNC(=O)OC1C(O[C@H]2C[C@H]3[C@@H]4CC=C5C[C@@H](O)CC[C@]5(C)[C@H]4CC[C@]3(C)[C@H]2[C@H](C)C(=O)CCC(C)C)OCC(O)C1OC1OCC(O)C(O)C1OC(=O)c1ccc(OC)cc1 (stereo partly specified)
[2]
  GI50: 0.0178 µM
  TGI: 4.96 µM
[3]
  GI50: 0.0149 µM
  TGI: 2.87 µM
[4]
  GI50: 0.0139 µM
  TGI: 0.554 µM
[5]
  GI50: < 0.00275 µM
  TGI: 0.00628 µM
[6]
  GI50: 0.00688 µM
  TGI: 0.0188 µM
[8]
  GI50: < 0.00275 µM
  TGI: 0.0111 µM
[7]
  GI50: 0.793 µM
  TGI: 7.69 µM

## CN1CCN(c2ccc(NC3=C(Cl)C(=O)c4ncccc4C3=O)cc2C#N)CC1
[1]
  GI50: 0.316 µM
  TGI: 1.24 µM
[2]
  GI50: 17.4 µM
  TGI: 33.7 µM
[4]
  GI50: 0.312 µM
  TGI: > 100 µM
[5]
  GI50: 15 µM
  TGI: 28.8 µM
[6]
  GI50: 1.78 µM
  TGI: 3.61 µM
[8]
  GI50: 1.4 µM
  TGI: 2.73 µM
[7]
  GI50: 2.09 µM
  TGI: 4.24 µM

## [C-]#[N+][C@]12C(=O)[C@H](CCC1(C)C)C(C)(C)[C@H]1C(=O)N(C)c3cccc2c31
[1]
  GI50: 4.07 µM
  TGI: > 100 µM
[2]
  GI50: 5.42 µM
  TGI: > 100 µM
[3]
  GI50: 4.54 µM
  TGI: > 100 µM
[4]
  GI50: 4.8 µM
  TGI: > 100 µM
[6]
  GI50: 22.8 µM
  TGI: > 100 µM
[8]
  GI50: > 100 µM
  TGI: > 100 µM
[7]
  GI50: > 100 µM
  TGI: > 100 µM

## Cc1cc(N(CCC#N)CCC#N)ccc1N=Nc1cccc(Cl)c1
[1]
  TGI: > 100 µM
[2]
  TGI: > 100 µM
[4]
  TGI: > 100 µM
[5]
  TGI: > 100 µM
[6]
  TGI: > 100 µM
[8]
  TGI: > 100 µM
[7]
  TGI: > 100 µM

## O=C(CNc1ncco1)Nc1ccc(S(=O)(=O)c2ccc(NC(=O)CNc3ncco3)cc2)cc1
[1]
  GI50: 4.72 µM
  TGI: 21.3 µM
[2]
  GI50: 2.2 µM
  TGI: 6.42 µM
[3]
  GI50: 1.34 µM
  TGI: 5.66 µM
[4]
  GI50: 2 µM
  TGI: 5.95 µM
[6]
  GI50: 1.75 µM
  TGI: 3.65 µM
[8]
  GI50: 1.42 µM
  TGI: 2.86 µM
[7]
  GI50: 11.7 µM
  TGI: 25 µM

## CCCCCCC#CC#Cc1cccc(=O)o1
[2]
  GI50: 9.24 µM
  TGI: 30.7 µM
[3]
  GI50: 2.22 µM
  TGI: 22.3 µM
[4]
  GI50: 7.33 µM
  TGI: > 100 µM
[5]
  GI50: 6.75 µM
  TGI: 22.4 µM
[6]
  GI50: 1.45 µM
  TGI: 2.86 µM
[8]
  GI50: 1.72 µM
  TGI: 4.65 µM
[7]
  GI50: 2.67 µM
  TGI: 8.23 µM

## CCCCCCNc1nc(N2CCOCC2)c2[nH]c(NCCCCCC)nc2n1
[2]
  GI50: 1.69 µM
  TGI: 3.38 µM
[5]
  GI50: 1.65 µM
  TGI: 3.21 µM
[6]
  GI50: 1.63 µM
  TGI: 3.12 µM
[8]
  GI50: 1.36 µM
  TGI: 2.67 µM
[7]
  GI50: 1.87 µM
  TGI: 3.45 µM
